Assay results taken from ChEMBL document CHEMBL1201862, “PubChem BioAssay data set” (2004).
“And” between values parts separate entries of the source, which are not always exact repeats. Identical values can stand only once.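 48-hour exposure; five concentrations; linearly interpolated endpoints. At the GI50, growth is halved.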 The source made the active and inactive calls. Cut-off read from the data, not from the text of the source: active = GI50 up to about 1.1 µM and inactive = higher.

Assays:
Test in all cases: DTP human tumour cell line panel, 48 h
786-0 = system: 786-0
A498 = system: A498
A549 = system: A549
ACHN = system: ACHN
BT-549 = system: BT-549
CAKI-1 = system: CAKI-1
CCRF-CEM = system: CCRF-CEM
COLO 205 = system: COLO 205
DU-145 = system: DU-145
EKVX = system: EKVX
HCC 2998 = system: HCC 2998
HCT-116 = system: HCT-116
HCT-15 = system: HCT-15
HL-60 = system: HL-60
HOP-62 = system: HOP-62
HOP-92 = system: HOP-92
HT-29 = system: HT-29
Hs-578T = system: Hs-578T
IGROV-1 = system: IGROV-1
K562 = system: K562
KM12 = system: KM12
LOX IMVI = system: LOX IMVI
M14 = system: M14
MCF7 = system: MCF7
MDA-MB-231 = system: MDA-MB-231
MDA-MB-435 = system: MDA-MB-435
MDA-N = system: MDA-N
MOLT-4 = system: MOLT-4
Malme-3M = system: Malme-3M
NCI-H226 = system: NCI-H226
NCI-H23 = system: NCI-H23
NCI-H460 = system: NCI-H460
NCI-H522 = system: NCI-H522
NCI/ADR-RES = system: NCI/ADR-RES
OVCAR-3 = system: OVCAR-3
OVCAR-4 = system: OVCAR-4
OVCAR-5 = system: OVCAR-5
OVCAR-8 = system: OVCAR-8
PC-3 = system: PC-3
RPMI-8226 = system: RPMI-8226
RXF 393 = system: RXF 393
SF-268 = system: SF-268
SF-295 = system: SF-295
SF-539 = system: SF-539
SK-MEL-28 = system: SK-MEL-28
SK-MEL-2 = system: SK-MEL-2
SK-MEL-5 = system: SK-MEL-5
SK-OV-3 = system: SK-OV-3
SN12C = system: SN12C
SNB-19 = system: SNB-19
SNB-75 = system: SNB-75
SR = system: SR
SW-620 = system: SW-620
T47D = system: T47D
TK-10 = system: TK-10
U-251 = system: U-251
UACC-257 = system: UACC-257
UACC-62 = system: UACC-62
UO-31 = system: UO-31
DLD-1 = system: DLD-1
DMS-114 = system: DMS-114
DMS-273 = system: DMS-273
LXFL 529 = system: LXFL 529
M19-MEL = system: M19-MEL
SNB-78 = system: SNB-78
XF498 = system: XF498

CC(NC(=O)OCc1ccccc1)NC(=O)OC(C)(C)C (centres undefined)
GI50 (786-0): > 100 µM (inactive) | GI50 (A498): > 100 µM (inactive) | GI50 (A549): > 100 µM (inactive) | GI50 (ACHN): > 100 µM (inactive) | GI50 (BT-549): > 100 µM (inactive) | GI50 (CAKI-1): > 100 µM (inactive) | GI50 (CCRF-CEM): > 100 µM (inactive) | GI50 (COLO 205): > 100 µM (inactive) | GI50 (DU-145): > 100 µM (inactive) | GI50 (EKVX): > 100 µM (inactive) | GI50 (HCC 2998): > 100 µM (inactive) | GI50 (HCT-116): > 100 µM (inactive) | GI50 (HCT-15): > 100 µM | GI50 (HL-60): > 100 µM (inactive) | GI50 (HOP-62): > 100 µM (inactive) | GI50 (HOP-92): > 100 µM (inactive) | GI50 (HT-29): > 100 µM (inactive) | GI50 (Hs-578T): > 100 µM (inactive) | GI50 (IGROV-1): > 100 µM (inactive) | GI50 (K562): > 100 µM (inactive) | GI50 (KM12): > 100 µM (inactive) | GI50 (LOX IMVI): > 100 µM (inactive) | GI50 (M14): > 100 µM (inactive) | GI50 (MCF7): > 100 µM (inactive) | GI50 (MDA-MB-231): > 100 µM (inactive) | GI50 (MDA-MB-435): > 100 µM (inactive) | GI50 (MDA-N): > 100 µM (inactive) | GI50 (MOLT-4): 84.9 µM (inactive) | GI50 (Malme-3M): > 100 µM (inactive) | GI50 (NCI-H226): > 100 µM (inactive) | GI50 (NCI-H23): > 100 µM (inactive) | GI50 (NCI-H460): 73.6 µM (inactive) | GI50 (NCI-H522): > 100 µM (inactive) | GI50 (NCI/ADR-RES): > 100 µM (inactive) | GI50 (OVCAR-3): > 100 µM (inactive) | GI50 (OVCAR-4): > 100 µM (inactive) | GI50 (OVCAR-5): > 100 µM (inactive) | GI50 (OVCAR-8): > 100 µM (inactive) | GI50 (PC-3): > 100 µM (inactive) | GI50 (RPMI-8226): 51.6 µM (inactive) | GI50 (RXF 393): 1.24 µM (inactive) | GI50 (SF-268): > 100 µM (inactive) | GI50 (SF-295): > 100 µM (inactive) | GI50 (SF-539): > 100 µM (inactive) | GI50 (SK-MEL-28): > 100 µM (inactive) | GI50 (SK-MEL-2): > 100 µM (inactive) | GI50 (SK-MEL-5): > 100 µM (inactive) | GI50 (SK-OV-3): > 100 µM (inactive) | GI50 (SN12C): > 100 µM (inactive) | GI50 (SNB-19): > 100 µM (inactive) | GI50 (SNB-75): > 100 µM (inactive) | GI50 (SR): > 100 µM (inactive) | GI50 (SW-620): > 100 µM (inactive) | GI50 (T47D): > 100 µM (inactive) | GI50 (TK-10): > 100 µM (inactive) | GI50 (U-251): > 100 µM (inactive) | GI50 (UACC-257): > 100 µM (inactive) | GI50 (UACC-62): > 100 µM (inactive) | GI50 (UO-31): > 100 µM (inactive)

O=C(n1c2ccccc2c2nnc(S)nc21)C(F)(F)F
GI50 (786-0): > 100 µM (inactive) | GI50 (A549): > 100 µM (inactive) | GI50 (CAKI-1): > 100 µM (inactive) | GI50 (CCRF-CEM): > 100 µM (inactive) | GI50 (COLO 205): > 100 µM (inactive) | GI50 (DLD-1): > 100 µM (inactive) | GI50 (DMS-114): > 100 µM (inactive) | GI50 (DMS-273): > 100 µM (inactive) | GI50 (EKVX): > 100 µM (inactive) | GI50 (HCC 2998): > 100 µM (inactive) | GI50 (HCT-116): > 100 µM (inactive) | GI50 (HCT-15): > 100 µM | GI50 (HOP-62): > 100 µM (inactive) | GI50 (HOP-92): > 100 µM (inactive) | GI50 (HT-29): > 100 µM (inactive) | GI50 (IGROV-1): > 100 µM (inactive) | GI50 (K562): > 100 µM (inactive) | GI50 (KM12): > 100 µM (inactive) | GI50 (LOX IMVI): > 100 µM (inactive) | GI50 (LXFL 529): > 100 µM (inactive) | GI50 (M14): > 100 µM (inactive) | GI50 (M19-MEL): > 100 µM (inactive) | GI50 (MOLT-4): > 100 µM (inactive) | GI50 (Malme-3M): > 100 µM (inactive) | GI50 (NCI-H226): > 100 µM (inactive) | GI50 (NCI-H23): > 100 µM (inactive) | GI50 (NCI-H460): > 100 µM (inactive) | GI50 (NCI-H522): > 100 µM (inactive) | GI50 (OVCAR-3): > 100 µM (inactive) | GI50 (OVCAR-4): > 100 µM (inactive) | GI50 (OVCAR-5): > 100 µM (inactive) | GI50 (OVCAR-8): > 100 µM (inactive) | GI50 (RXF 393): 33.4 µM (inactive) | GI50 (SF-268): > 100 µM (inactive) | GI50 (SF-295): > 100 µM (inactive) | GI50 (SF-539): > 100 µM (inactive) | GI50 (SK-MEL-28): 60.5 µM (inactive) | GI50 (SK-MEL-2): > 10 µM (inactive) | GI50 (SK-MEL-5): > 100 µM (inactive) | GI50 (SK-OV-3): > 100 µM (inactive) | GI50 (SN12C): > 100 µM (inactive) | GI50 (SNB-19): > 100 µM (inactive) | GI50 (SNB-75): > 100 µM (inactive) | GI50 (SNB-78): > 100 µM (inactive) | GI50 (SW-620): > 100 µM (inactive) | GI50 (TK-10): 0.962 µM (active) | GI50 (U-251): > 100 µM (inactive) | GI50 (UACC-62): > 100 µM (inactive) | GI50 (UO-31): > 100 µM (inactive) | GI50 (XF498): > 100 µM (inactive)

C=CN1C(=O)OC(c2ccccc2)C1c1ccccc1 (centres undefined)
GI50 (DMS-273): 57.4 µM (inactive) and > 31.6 µM (inactive) | GI50 (HL-60): > 31.6 µM (inactive) and 45.2 µM (inactive) | GI50 (K562): > 31.6 µM (inactive) and 40.5 µM (inactive) | GI50 (LOX IMVI): 49.1 µM (inactive) and > 78.5 µM (inactive) | GI50 (OVCAR-5): > 100 µM (inactive) | GI50 (SF-295): > 100 µM (inactive) and > 99.3 µM (inactive) | GI50 (SF-539): 61.1 µM (inactive) and > 31.6 µM (inactive) | GI50 (SR): > 100 µM (inactive) | GI50 (SW-620): 40.7 µM (inactive) and > 31.6 µM (inactive) | GI50 (U-251): 54.7 µM (inactive) and > 31.6 µM (inactive) | GI50 (XF498): > 10 µM (inactive)

Cc1cc(C)c2c(O)cc(-c3ccc(Cl)cc3)nc2n1
GI50 (786-0): > 46.5 µM (inactive) | GI50 (A498): 32.4 µM (inactive) | GI50 (A549): 30.6 µM (inactive) | GI50 (ACHN): 48 µM (inactive) | GI50 (BT-549): 23.6 µM (inactive) | GI50 (CAKI-1): 37.4 µM (inactive) | GI50 (CCRF-CEM): 69.3 µM (inactive) | GI50 (COLO 205): 24.7 µM (inactive) | GI50 (DU-145): 54.1 µM (inactive) | GI50 (EKVX): > 56.2 µM (inactive) | GI50 (HCC 2998): 27.6 µM (inactive) | GI50 (HCT-116): 24.2 µM (inactive) | GI50 (HCT-15): 21.9 µM | GI50 (HL-60): 23.1 µM (inactive) | GI50 (HOP-62): 44.8 µM (inactive) | GI50 (HOP-92): 9.27 µM (inactive) | GI50 (HT-29): 19.9 µM (inactive) | GI50 (Hs-578T): > 100 µM (inactive) | GI50 (IGROV-1): 27.4 µM (inactive) | GI50 (K562): 9.79 µM (inactive) | GI50 (KM12): 16.3 µM (inactive) | GI50 (LOX IMVI): 35.5 µM (inactive) | GI50 (M14): 25.7 µM (inactive) | GI50 (MCF7): 27.2 µM (inactive) | GI50 (MDA-MB-231): > 27.9 µM (inactive) | GI50 (MDA-MB-435): 6.79 µM (inactive) | GI50 (MDA-N): 7.11 µM (inactive) | GI50 (MOLT-4): 22.5 µM (inactive) | GI50 (Malme-3M): 30.8 µM (inactive) | GI50 (NCI-H226): > 100 µM (inactive) | GI50 (NCI-H23): 75 µM (inactive) | GI50 (NCI-H460): 25.8 µM (inactive) | GI50 (NCI-H522): 46.8 µM (inactive) | GI50 (NCI/ADR-RES): > 31.8 µM (inactive) | GI50 (OVCAR-3): 26.9 µM (inactive) | GI50 (OVCAR-4): 21.6 µM (inactive) | GI50 (OVCAR-5): > 100 µM (inactive) | GI50 (OVCAR-8): > 100 µM (inactive) | GI50 (PC-3): 14.9 µM (inactive) | GI50 (RPMI-8226): 30.3 µM (inactive) | GI50 (RXF 393): 43.7 µM (inactive) | GI50 (SF-268): > 100 µM (inactive) | GI50 (SF-295): 28.2 µM (inactive) | GI50 (SF-539): > 100 µM (inactive) | GI50 (SK-MEL-28): 28.3 µM (inactive) | GI50 (SK-MEL-2): 47 µM (inactive) | GI50 (SK-MEL-5): 17.1 µM (inactive) | GI50 (SK-OV-3): 84.9 µM (inactive) | GI50 (SN12C): > 33 µM (inactive) | GI50 (SNB-19): 94 µM (inactive) | GI50 (SNB-75): 33.2 µM (inactive) | GI50 (SR): 37.6 µM (inactive) | GI50 (SW-620): 26.6 µM (inactive) | GI50 (T47D): 40 µM (inactive) | GI50 (TK-10): > 100 µM (inactive) | GI50 (U-251): 36.8 µM (inactive) | GI50 (UACC-257): 24.4 µM (inactive) | GI50 (UACC-62): 60.4 µM (inactive) | GI50 (UO-31): 41.8 µM (inactive)
